From US12052991B2, “Substituted pyridinyloxybenzenes and salts thereof and use thereof as herbicidal agents” (Bayer Aktiengesellschaft, priority 2018, dated 2024)

Tests used:
Type in all cases: in vivo
Bassia scoparia (KCHSC) [1] = assay: Herbicidal pre-emergence action, test C (Table C11); conditions: visual scoring vs untreated controls
Text: Seeds of mono- and dicotyledonous weed plants were placed in plastic pots in sandy loam soil (doubly sown with one species each of mono- or dicotyledonous weed plants per pot) and covered with soil. The compounds of the invention, formulated in the form of wettable powders (WP) or as emulsion concentrates (EC), were then applied onto the surface of the covering soil as aqueous suspension or emulsion with addition of 0.5% additive at a water application rate of 600 liters per hectare (converted). After the treatment, the pots were placed in a greenhouse and kept under good growth conditions for the test plants. After about 3 weeks, the effect of the preparations was scored visually in comparison with untreated controls as percentages. For example, 100% activity=the plants have died, 0% activity=like control plants. Tables C1 to C12 below show the effects of selected compounds of the general formula (I) according to Table 1 on various harmful plants and an application rate corresponding to 1280 or 320 g/ha, which were obtained by the experimental procedure mentioned above.

[2] = test system: Alopecurus myosuroides (ALOMY); assay: Herbicidal post-emergence action (Table B9); conditions: rated visually after about 3 weeks, 100% = plants have died, 0% = like control plants
Procedure, shortened: (§1)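 Greenhouse pot-grown weeds in sandy loam, sprayed at the one-leaf stage (2–3 weeks post-sowing) with WP or EC formulations plus 0.5% additive at 600 l/ha water, at 1280 or 320 g/ha. Visual % activity versus untreated controls rated about 3 weeks later (100% = dead).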

[3] = test system: harmful plants ABUTH, AMARE, ECHCG, LOLRI, MATIN, POAAN, SETVI, STEME, ALOMY, DIGSA, KCHSC and VERPE; assay: Herbicidal pre-emergence action (test C), summary of Tables C1-C12; conditions: application rate of 1280 or 320 g of active ingredient per hectare; summary in words
Procedure, shortened: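 Pre-emergence pot test in sandy loam: WP or EC formulations were sprayed onto the covering soil with 0.5% additive at 600 L/ha water, at 1280 or 320 g/ha. Plants were kept in the greenhouse, and activity was rated visually about 3 weeks later as % versus untreated controls (100% = dead).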

[4] = test system: Digitaria sanguinalis (DIGSA); assay: Herbicidal pre-emergence action, test C (Table C10); conditions: visual scoring after about 3 weeks, 100% = plants have died, 0% = like control plants
Procedure, shortened: (§2)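 % herbicidal effect, visual, vs untreated; 0% = as control, 100% = plants dead. Scored ~3 wk post-application. Rate 1280 or 320 g/ha onto covering soil pre-emergence.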

Veronica persica (VERPE) [5] = assay: Herbicidal pre-emergence action, test C (Table C12); conditions: visual scoring vs untreated controls
Procedure, shortened: as §2

Lolium rigidum (LOLRI) [6] = assay: Herbicidal post-emergence action (Table B2); conditions: 1280 g/ha; rated visually after about 3 weeks; 100% = plants have died, 0% = like control plants
Description: (§3) Seeds of mono- and dicotyledonous weed plants were placed in plastic pots in sandy loam soil (doubly sown with in each case one species of mono- or dicotyledonous weed plants per pot), covered with soil and cultivated in a greenhouse under controlled growth conditions. 2 to 3 weeks after sowing, the test plants were treated at the one-leaf stage. The compounds of the invention, formulated in the form of wettable powders (WP) or as emulsion concentrates (EC), were applied onto the green parts of the plants as aqueous suspension or emulsion with addition of 0.5% additive at a water application rate of 600 liters per hectare (converted). After the test plants had been kept in the greenhouse under optimum growth conditions for about 3 weeks, the activity of the preparations was rated visually in comparison to untreated controls. For example, 100% activity=the plants have died, 0% activity=like control plants. Tables B1 to B12 below show the effects of selected compounds of the general formula (I) according to Table 1 on various harmful plants and an application rate corresponding to 1280 or 320 g/ha, which were obtained by the experimental procedure mentioned above.

Stellaria media (STEME) [7] = assay: Herbicidal post-emergence action (Table B8); conditions: visual rating about 3 weeks after treatment, 100% = plants have died, 0% = like control plants
Procedure, shortened: as §1

[8] = test system: Alopecurus myosuroides (ALOMY); assay: Herbicidal pre-emergence action, test C (Table C9); conditions: visual scoring after about 3 weeks, 100% = plants have died, 0% = like control plants
Procedure, shortened: as §2

Stellaria media (STEME) [9] = assay: Herbicidal pre-emergence action, test C (Table C8); conditions: visual scoring after about 3 weeks, 100% = plants have died, 0% = like control plants
Procedure, shortened: as §2

Lolium rigidum (LOLRI) [10] = assay: Herbicidal pre-emergence action, test C (Table C2); conditions: dosage 1280 g/ha; visual scoring after about 3 weeks; 100% = plants have died, 0% = like control plants
Procedure, shortened: as §2

Setaria viridis (SETVI) [11] = assay: Herbicidal post-emergence action (Table B4); conditions: 1280 g/ha; rated visually after about 3 weeks; 100% = plants have died, 0% = like control plants
Description: as §3

Bassia scoparia (KCHSC) [12] = assay: Herbicidal post-emergence action (Table B11); conditions: visual rating about 3 weeks after treatment, 100% = plants have died, 0% = like control plants
Procedure, shortened: as §1

Veronica persica (VERPE) [13] = assay: Herbicidal post-emergence action (Table B12); conditions: visual rating about 3 weeks after treatment, 100% = plants have died, 0% = like control plants
Procedure, shortened: as §1

[14] = test system: Digitaria sanguinalis (DIGSA); assay: Herbicidal post-emergence action (Table B10); conditions: visual rating about 3 weeks after treatment, 100% = plants have died, 0% = like control plants
Procedure, shortened: as §1

Poa annua (POAAN) = assay: Herbicidal pre-emergence action, test C (Table C3); conditions: visual scoring after about 3 weeks, 100% = plants have died, 0% = like control plants
Procedure, shortened: as §2

Setaria viridis (SETVI) [15] = assay: Herbicidal pre-emergence action, test C (Table C4); conditions: visual scoring after about 3 weeks, 100% = plants have died, 0% = like control plants
Procedure, shortened: as §2

[16] = test system: Amaranthus retroflexus (AMARE); assay: Herbicidal post-emergence action (Table B6); conditions: visual rating about 3 weeks after treatment, 100% = plants have died, 0% = like control plants
Procedure, shortened: as §1

[17] = test system: Abutilon theophrasti (ABUTH); assay: Herbicidal post-emergence action (Table B5); conditions: rated visually after about 3 weeks, 100% = plants have died, 0% = like control plants
Procedure, shortened: as §1

[18] = test system: Echinochloa crus-galli (ECHCG); assay: Herbicidal pre-emergence action, test C (Table C1); conditions: visual scoring after about 3 weeks, 100% = plants have died, 0% = like control plants
Procedure, shortened: as §2

[19] = test system: Amaranthus retroflexus (AMARE); assay: Herbicidal pre-emergence action, test C (Table C6); conditions: visual scoring after about 3 weeks, 100% = plants have died, 0% = like control plants
Procedure, shortened: as §2

[20] = test system: Abutilon theophrasti (ABUTH); assay: Herbicidal pre-emergence action, test C (Table C5); conditions: visual scoring after about 3 weeks, 100% = plants have died, 0% = like control plants
Procedure, shortened: as §2

[21] = test system: Matricaria inodora (MATIN); assay: Herbicidal pre-emergence action, test C (Table C7); conditions: visual scoring after about 3 weeks, 100% = plants have died, 0% = like control plants
Procedure, shortened: as §2

[22] = test system: harmful plants ABUTH, AMARE, ECHCG, LOLRI, MATIN, POAAN, SETVI, STEME, ALOMY, DIGSA, KCHSC and VERPE; assay: Herbicidal post-emergence action, summary of Tables B1-B12; conditions: application rate of 1280 or 320 g of active ingredient per hectare; summary in words
Procedure, shortened: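 Greenhouse weeds in sandy loam treated post-emergence at the one-leaf stage, 2–3 weeks after sowing, with WP or EC formulations sprayed with 0.5% additive at 600 L/ha water, 1280 or 320 g/ha. Damage rated visually after about 3 weeks versus untreated controls (0% = like control, 100% = dead).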

SMILES: Fc1cc(Cl)cnc1Oc1ccccc1-c1cncc(C(F)(F)F)c1 [Example 1-72]
- Pre-emergence action against Bassia scoparia (KCHSC) (Bassia scoparia (KCHSC) [1]; dosage 320 g/ha): 100%
- Pre-emergence action against Bassia scoparia (KCHSC) (Bassia scoparia (KCHSC) [1]; dosage 1280 g/ha): 100%
- Post-emergence action against Alopecurus myosuroides (ALOMY) ([2]; 320 g/ha): 100%
- Post-emergence action against Alopecurus myosuroides (ALOMY) ([2]; 1280 g/ha): 100%
- herbicidal activity against the harmful plants of Tables C1-C12 in pre-emergence treatment [3]: very good herbicidal activity
- Pre-emergence action against Digitaria sanguinalis (DIGSA) ([4]; dosage 320 g/ha): 100%
- Pre-emergence action against Digitaria sanguinalis (DIGSA) ([4]; dosage 1280 g/ha): 100%
- Pre-emergence action against Veronica persica (VERPE) (Veronica persica (VERPE) [5]; dosage 320 g/ha): 100%
- Pre-emergence action against Veronica persica (VERPE) (Veronica persica (VERPE) [5]; dosage 1280 g/ha): 100%
- Post-emergence action against Lolium rigidum (LOLRI) (Lolium rigidum (LOLRI) [6]): 100%
- Post-emergence action against Stellaria media (STEME) (Stellaria media (STEME) [7]; dosage 320 g/ha): 100%
- Post-emergence action against Stellaria media (STEME) (Stellaria media (STEME) [7]; dosage 1280 g/ha): 100%
- Pre-emergence action against Alopecurus myosuroides (ALOMY) ([8]; dosage 320 g/ha): 100%
- Pre-emergence action against Alopecurus myosuroides (ALOMY) ([8]; dosage 1280 g/ha): 100%
- Pre-emergence action against Stellaria media (STEME) (Stellaria media (STEME) [9]; dosage 320 g/ha): 90%
- Pre-emergence action against Stellaria media (STEME) (Stellaria media (STEME) [9]; dosage 1280 g/ha): 100%
- Pre-emergence action against Lolium rigidum (LOLRI) (Lolium rigidum (LOLRI) [10]): 100%
- Post-emergence action against Setaria viridis (SETVI) (Setaria viridis (SETVI) [11]): 90%
- Post-emergence action against Bassia scoparia (KCHSC) (Bassia scoparia (KCHSC) [12]; dosage 320 g/ha): 100%
- Post-emergence action against Bassia scoparia (KCHSC) (Bassia scoparia (KCHSC) [12]; dosage 1280 g/ha): 100%
- Post-emergence action against Veronica persica (VERPE) (Veronica persica (VERPE) [13]; dosage 320 g/ha): 100%
- Post-emergence action against Veronica persica (VERPE) (Veronica persica (VERPE) [13]; dosage 1280 g/ha): 100%
- Post-emergence action against Digitaria sanguinalis (DIGSA) ([14]; dosage 320 g/ha): 90%
- Post-emergence action against Digitaria sanguinalis (DIGSA) ([14]; dosage 1280 g/ha): 100%
- Pre-emergence action against Poa annua (POAAN) (Poa annua (POAAN); dosage 320 g/ha): 100%
- Pre-emergence action against Poa annua (POAAN) (Poa annua (POAAN); dosage 1280 g/ha): 100%
- Pre-emergence action against Setaria viridis (SETVI) (Setaria viridis (SETVI) [15]; dosage 320 g/ha): 100%
- Pre-emergence action against Setaria viridis (SETVI) (Setaria viridis (SETVI) [15]; dosage 1280 g/ha): 100%
- Post-emergence action against Amaranthus retroflexus (AMARE) ([16]; dosage 320 g/ha): 100%
- Post-emergence action against Amaranthus retroflexus (AMARE) ([16]; dosage 1280 g/ha): 100%
- Post-emergence action against Abutilon theophrasti (ABUTH) ([17]; 320 g/ha): 100%
- Post-emergence action against Abutilon theophrasti (ABUTH) ([17]; 1280 g/ha): 100%
- Pre-emergence action against Echinochloa crus-galli (ECHCG) ([18]; dosage 320 g/ha): 100%
- Pre-emergence action against Echinochloa crus-galli (ECHCG) ([18]; dosage 1280 g/ha): 100%
- Pre-emergence action against Amaranthus retroflexus (AMARE) ([19]; dosage 320 g/ha): 100%
- Pre-emergence action against Amaranthus retroflexus (AMARE) ([19]; dosage 1280 g/ha): 100%
- Pre-emergence action against Abutilon theophrasti (ABUTH) ([20]; dosage 320 g/ha): 100%
- Pre-emergence action against Abutilon theophrasti (ABUTH) ([20]; dosage 1280 g/ha): 100%
- Pre-emergence action against Matricaria inodora (MATIN) ([21]; dosage 320 g/ha): 90%
- Pre-emergence action against Matricaria inodora (MATIN) ([21]; dosage 1280 g/ha): 100%
- herbicidal activity against the harmful plants of Tables B1-B12 in post-emergence treatment [22]: very good herbicidal activity
